Laboratory results taken from patent publication US20090093476A1, “PYRROLO[1,2-A]QUINOXALINE DERIVATIVES AS ADENOSINE A3 RECEPTOR MODULATORS AND USES THEREOF” (FAUST PHARMACEUTICALS, priority 2005, published 2009).
Structures can show the parent of a compound that is named as a salt.

Experiments:
Human A3 receptor [1] = molecular target: T1, Human A3 receptor (Homo sapiens, UniProt P0DMS8); experiment: Functional assay on human A3 receptor: forskolin-stimulated cAMP in CHO cells; type: cell-based; set-up: expressed in transfected cells; host or cells: CHO cells; conditions: for cAMP levels: forskolin 10 μM, example 1 10 μM, Cl-IB-MECA 0.1 μM, Basal 0, Forskolin 100
T1 sequence (P0DMS8 1-318): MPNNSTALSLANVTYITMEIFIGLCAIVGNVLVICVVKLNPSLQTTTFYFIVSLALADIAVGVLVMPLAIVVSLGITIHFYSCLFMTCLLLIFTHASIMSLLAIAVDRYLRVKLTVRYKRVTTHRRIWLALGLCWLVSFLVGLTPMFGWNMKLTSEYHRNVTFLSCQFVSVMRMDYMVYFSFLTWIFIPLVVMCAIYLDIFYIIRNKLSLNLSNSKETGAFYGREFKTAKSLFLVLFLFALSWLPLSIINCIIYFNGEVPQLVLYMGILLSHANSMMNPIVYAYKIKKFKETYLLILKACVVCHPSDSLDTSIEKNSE
Method: CHO cells expressing the human A3 receptor were grown overnight as a monolayer in 24 well tissue culture plates (400 μl/well; 2×10^5 cells/well). cAMP generation was performed in Dulbecco's modified Eagle's medium (DMEM)/N-2-hydroxyethylpiperazin-N-2-ethansulfonic acid (HEPES) buffer (0.60 g HEPES/50 ml DMEM pH 7.4). Each well was washed twice with HEPES/DMEM buffer (250 μl), and the following added: rolipram (50 μM) and cilostamide (50 μM). This was incubated for 30 min at 37° C. followed by the introduction of the compound of example 1 (10 μM) and Cl-IB-MECA (0.1 μM) or DMEM/HEPES. After a further 10 min of incubation, forskolin was added (10 μM). After a subsequent 15 min, incubation was stopped by aspirating the assay medium and by adding 200 μl of ice-cold 0.1M HCl. The amount of cAMP was determined by competition with [3H]cAMP for protein kinase A (PKA). Briefly, the sample, approximately 1.8 nM [3H]cAMP, and 100 μl of PKA solution were incubated on ice for at least 2.5 h. The incubations were stopped by rapid dilution with 2 ml of icecold Tris HCl buffer (pH 7.4), and bound radioactive material was then recovered by filtration through Whatman GF/C filters. Filters were additionally rinsed with 2×2 ml of Tris HCl buffer, and then the radioactivity was counted in Packard Emulsifier Safe scintillation fluid (3.5 mL). All data reflect three independent experiments.

Human A3 receptor [2] = molecular target: T1, Human A3 receptor; experiment: Human A3 receptor binding assay, [125I]AB-MECA, HEK-293 cells; set-up: expressed in transfected cells; conditions: [125I]AB-MECA 0.15 nM; for IC50: HEK-293 cells, read-out: hA3 IC50; for inhibition at 1 µM: read-out: hA3 inhibition at 1 μM (of specific binding)
Method: Compounds of the invention were evaluated in binding assays following procedure described by Salvatore et al. (Proc. Natl. Acad. Sci. (1993), 90:10365-10369). Human A3 receptors were used in HEK-293 cells with [^125I]AB-MECA (0.15 nM) as radioligand, IB-MECA (1 μM) for non-specific binding and 90 minutes of incubation at 22° C.

Human A2B receptor = molecular target: T2, Human A2B receptor (Homo sapiens, UniProt P29275); experiment: Human A2B receptor binding assay, [3H]MRS1754, HEK-293 cells; conditions: for IC50: [3H]MRS1754 0.5 nM, HEK-293 cells, read-out: hA2B IC50
T2 construct: expressed in transfected cells; host or cells: HEK-293 cells
T2 sequence (P29275 1-332): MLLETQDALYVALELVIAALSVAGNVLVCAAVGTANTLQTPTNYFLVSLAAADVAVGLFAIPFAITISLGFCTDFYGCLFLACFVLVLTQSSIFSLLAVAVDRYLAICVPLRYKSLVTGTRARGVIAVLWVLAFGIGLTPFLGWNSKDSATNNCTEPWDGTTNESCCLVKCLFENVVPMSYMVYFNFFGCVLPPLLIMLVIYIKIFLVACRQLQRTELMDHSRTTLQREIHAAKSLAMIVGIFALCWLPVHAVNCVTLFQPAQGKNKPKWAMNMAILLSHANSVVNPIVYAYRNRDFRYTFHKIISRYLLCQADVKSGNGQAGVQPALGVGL
Method: Compounds of the invention were evaluated in binding assays following procedure described by Stehle et al. (Mol. Endocrinol. (1992), 6:384-393). Human A2B receptors were used in HEK-293 cells with [^3H]MRS1754 (0.5 nM) as radioligand, NECA (1 μM) for non-specific binding and 120 minutes of incubation at 22° C.

Human A1 receptor = molecular target: T3, Human A1 receptor (Homo sapiens, UniProt P30542); experiment: Human A1 receptor binding assay, [3H]DPCPX, CHO cells; conditions: for IC50 / inhibition at 10 µM: [3H]DPCPX 1 nM; for IC50: CHO cells, read-out: hA1 IC50; for inhibition at 10 µM: read-out: hA1 inhibition at 10 μM
T3 construct: expressed in transfected cells; host or cells: CHO cells
T3 sequence (P30542 1-326): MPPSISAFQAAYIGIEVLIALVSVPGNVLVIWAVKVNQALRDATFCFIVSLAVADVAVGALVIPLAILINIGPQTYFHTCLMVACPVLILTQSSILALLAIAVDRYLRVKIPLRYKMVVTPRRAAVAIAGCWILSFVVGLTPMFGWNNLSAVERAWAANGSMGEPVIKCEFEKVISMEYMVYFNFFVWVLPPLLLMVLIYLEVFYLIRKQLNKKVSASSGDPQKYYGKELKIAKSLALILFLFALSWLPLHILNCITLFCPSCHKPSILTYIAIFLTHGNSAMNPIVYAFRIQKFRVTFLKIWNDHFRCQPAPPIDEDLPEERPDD
Method: Compounds of the invention were evaluated in binding assays following procedure described by Townsend-Nicholson and Schofield (J. Biol. Chem. (1994), 269:2373-2376). Human A1 receptors were used in CHO cells with [^3H]DPCPX (1 nM) as radioligand, DPCPX (1 μM) for non-specific binding and 60 minutes of incubation at 22° C.

Human A2A receptor = molecular target: T4, Human A2A receptor (Homo sapiens, UniProt P29274); experiment: Human A2A receptor binding assay, [3H]CGS 21680, HEK-293 cells; conditions: for IC50 / inhibition at 10 µM: [3H]CGS 21680 6 nM; for IC50: HEK-293 cells, read-out: hA2A IC50; for inhibition at 10 µM: read-out: hA2A inhibition at 10 μM
T4 construct: expressed in transfected cells; host or cells: HEK-293 cells
Method: Compounds of the invention were evaluated in binding assays following procedure described by Luthin et al. (Mol. Pharmacol. (1995), 47:307-313). Human A2A receptors were used in HEK-293 cells with [^3H]CGS 21680 (6 nM) as radioligand, NECA (10 μM) for non-specific binding and 90 minutes of incubation at 22° C.

T4 sequence (P29274 whole entry): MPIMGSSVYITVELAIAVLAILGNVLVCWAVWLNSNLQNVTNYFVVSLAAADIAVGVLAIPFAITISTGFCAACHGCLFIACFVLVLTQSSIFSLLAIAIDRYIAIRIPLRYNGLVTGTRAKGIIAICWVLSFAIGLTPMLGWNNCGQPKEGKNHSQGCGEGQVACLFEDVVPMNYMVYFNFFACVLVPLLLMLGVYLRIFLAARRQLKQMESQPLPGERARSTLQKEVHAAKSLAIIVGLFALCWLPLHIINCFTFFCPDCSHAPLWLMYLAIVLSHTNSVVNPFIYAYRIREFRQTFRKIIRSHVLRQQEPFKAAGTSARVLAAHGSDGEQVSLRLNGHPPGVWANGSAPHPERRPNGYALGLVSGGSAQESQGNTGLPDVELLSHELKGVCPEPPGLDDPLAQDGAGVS

A melting point of 299 to 301 °C was found for `CCNc1nc2ccccc2n2cc(-c3ccccc3)cc12.Cl` in this work.
In the case of `O=c1[nH]c2ccccc2n2cc(-c3ccccc3)cc12` [Example 1, 2-Phenyl-5H-pyrrolo[1,2-a]quinoxalin-4-one], the “mode of action at A3 receptor (prevents cAMP-decrease evoked by Cl-IB-MECA)” value (Human A3 receptor [1]; example 1 10 μM vs Cl-IB-MECA 0.1 μM) is reported as “antagonist”, the cAMP levels (Human A3 receptor [1]; n = 1) is reported as 150.133 and the cAMP levels (Human A3 receptor [1]; n = 2) is reported as 130.150. For the same compound, the cAMP levels (Human A3 receptor [1]; n = 3) was 104.510, the IC50 (Human A3 receptor [2]) was 0.0093 µM and the IC50 (Human A2B receptor) was over 1 µM. For the same compound, the “affinity on A2B (in words)” value (Human A2B receptor; up to 1 μM) was “no detectable affinity”, the melting point was 301 to 303 °C and the IC50 (Human A1 receptor) was over 10 µM. The “affinity on A1 (in words)” value (Human A1 receptor; up to 10 μM) was “no detectable affinity”, the IC50 (Human A2A receptor) was over 10 µM and the “affinity on A2A (in words)” value (Human A2A receptor; up to 10 μM) was “no detectable affinity”.
An inhibition at 1 µM (Human A3 receptor [2]) of 82% and a melting point of 327 to 332 °C were found for `COc1ccc(-c2cc3c(=O)[nH]c4ccccc4n3c2)cc1` [Example 2, 2-(4-Methoxy-phenyl)-5H-pyrrolo[1,2-a]quinoxalin-4-one] in this work.
A melting point of 172 °C was found for `c1ccc(Nc2nc3ccccc3n3cc(-c4ccccc4)cc23)cc1` [Example 3, Phenyl-(2-phenyl-pyrrolo[1,2-a]quinoxalin-4-yl)-amine] in this work.
A melting point of 109 to 111 °C was found for `CN(C)c1nc2ccccc2n2cc(-c3ccccc3)cc12` [Example 6, Dimethyl-(2-phenyl-pyrrolo[1,2-a]quinoxalin-4-yl)-amine] in this work.
A melting point of 126 °C was found for `c1ccc(CCNc2nc3ccccc3n3cc(-c4ccccc4)cc23)cc1` [Example 7, Phenethyl-(2-phenyl-pyrrolo[1,2-a]quinoxalin-4-yl)-amine] in this work.
A melting point of 132 °C was found for `CSc1nc2ccccc2n2cc(-c3ccccc3)cc12` [Example 9, 4-Methylsulfanyl-2-phenyl-pyrrolo[1,2-a]quinoxaline] in this work.
An inhibition at 1 µM (Human A3 receptor [2]) of 32% was found for `CN(C)c1ccc(-c2cc3c(=O)[nH]c4ccccc4n3c2)cc1` [Example 10, 2-(4-Dimethylamino-phenyl)-5H-pyrrolo[1,2-a]quinoxalin-4-one, trifluoroacetic acid salt] in this work.
An inhibition at 1 µM (Human A3 receptor [2]) of 90%, an IC50 (Human A2B receptor) of over 10 µM and an inhibition at 10 µM (Human A1 receptor) of 53% were found for `O=c1[nH]c2ccc(N3CCOCC3)cc2n2cc(-c3ccccc3)cc12` [Example 11, 8-Morpholin-4-yl-2-phenyl-5H-pyrrolo[1,2-a]quinoxalin-4-one, trifluoroacetic acid salt] in this work. The IC50 (Human A2A receptor) was over 10 µM.
A melting point of 314 to 315 °C was found for `Cc1ccc2[nH]c(=O)c3cc(-c4ccccc4)cn3c2c1` [Example 12, 8-Methyl-2-phenyl-5H-pyrrolo[1,2-a]quinoxalin-4-one] in this work.
A melting point of 346 °C was found for `O=c1[nH]c2ccc(Cl)cc2n2cc(-c3ccccc3)cc12` [Example 13, 8-Chloro-2-phenyl-5H-pyrrolo[1,2-a]quinoxalin-4-one] in this work.
An IC50 (Human A3 receptor [2]) of 0.011 µM, an IC50 (Human A2B receptor) of over 10 µM and an IC50 (Human A1 receptor) of 8.4 µM were found for `CN1CCN(c2ccc3[nH]c(=O)c4cc(-c5ccccc5)cn4c3c2)CC1` [Example 14, 8-(4-Methyl-piperazin-1-yl)-2-phenyl-5H-pyrrolo[1,2-a]quinoxalin-4-one] in this work. It also gave an IC50 (Human A2A receptor) of over 10 µM.
An IC50 (Human A3 receptor [2]) of 0.0031 µM, an IC50 (Human A2B receptor) of over 10 µM and an inhibition at 10 µM (Human A1 receptor) of 53% were found for `O=c1[nH]c2ccc(NCCCN3CCOCC3)cc2n2cc(-c3ccccc3)cc12` [Example 15, 8-(3-Morpholin-4-yl-propylamino)-2-phenyl-5H-pyrrolo[1,2-a]quinoxalin-4-one, trifluoro-acetic acid salt] in this work. For the same compound, the inhibition at 10 µM (Human A2A receptor) was 69%.
An IC50 (Human A3 receptor [2]) of 0.0035 µM, an IC50 (Human A2B receptor) of over 10 µM and a melting point of 190 to 200 °C were found for `O=C(O)C(F)(F)F.O=c1[nH]c2ccc(OCCN3CCOCC3)cc2n2cc(-c3ccccc3)cc12` [Example 17, 8-(2-Morpholin-4-yl-ethoxy)-2-phenyl-5H-pyrrolo[1,2-a]quinoxalin-4-one, trifluoroacetic acid salt] in this work. The inhibition at 10 µM (Human A1 receptor) was 54% and the inhibition at 10 µM (Human A2A receptor) was 57%.
